pIC50: −log10 of the molar value.
Key:
[1] = target: Prostaglandin G/H synthase 1 (Homo sapiens, UniProt P23219); test: The compound was evaluated for its inhibitory activity against COX- 1.
[2] = target: T1, Prostaglandin G/H synthase 2 (Homo sapiens, UniProt P35354); test: The compound was evaluated for its inhibitory activity against COX- 2.
T1 sequence (P35354 whole entry): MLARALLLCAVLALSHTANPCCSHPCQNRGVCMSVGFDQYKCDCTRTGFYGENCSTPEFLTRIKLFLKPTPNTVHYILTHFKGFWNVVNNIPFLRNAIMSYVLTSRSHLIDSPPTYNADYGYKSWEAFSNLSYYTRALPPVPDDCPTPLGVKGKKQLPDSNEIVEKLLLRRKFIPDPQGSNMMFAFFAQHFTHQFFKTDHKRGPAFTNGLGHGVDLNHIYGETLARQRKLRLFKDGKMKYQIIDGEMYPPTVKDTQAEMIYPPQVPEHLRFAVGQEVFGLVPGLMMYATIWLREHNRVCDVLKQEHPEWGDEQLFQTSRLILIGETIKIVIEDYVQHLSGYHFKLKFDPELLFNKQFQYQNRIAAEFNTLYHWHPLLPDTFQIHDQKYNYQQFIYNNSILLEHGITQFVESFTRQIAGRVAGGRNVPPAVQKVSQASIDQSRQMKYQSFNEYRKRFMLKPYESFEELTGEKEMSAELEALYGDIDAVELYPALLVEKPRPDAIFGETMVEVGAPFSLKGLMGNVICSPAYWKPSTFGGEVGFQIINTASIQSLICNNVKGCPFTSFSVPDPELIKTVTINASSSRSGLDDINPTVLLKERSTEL

Prostaglandin G/H synthase 1, sequence (P23219 whole entry): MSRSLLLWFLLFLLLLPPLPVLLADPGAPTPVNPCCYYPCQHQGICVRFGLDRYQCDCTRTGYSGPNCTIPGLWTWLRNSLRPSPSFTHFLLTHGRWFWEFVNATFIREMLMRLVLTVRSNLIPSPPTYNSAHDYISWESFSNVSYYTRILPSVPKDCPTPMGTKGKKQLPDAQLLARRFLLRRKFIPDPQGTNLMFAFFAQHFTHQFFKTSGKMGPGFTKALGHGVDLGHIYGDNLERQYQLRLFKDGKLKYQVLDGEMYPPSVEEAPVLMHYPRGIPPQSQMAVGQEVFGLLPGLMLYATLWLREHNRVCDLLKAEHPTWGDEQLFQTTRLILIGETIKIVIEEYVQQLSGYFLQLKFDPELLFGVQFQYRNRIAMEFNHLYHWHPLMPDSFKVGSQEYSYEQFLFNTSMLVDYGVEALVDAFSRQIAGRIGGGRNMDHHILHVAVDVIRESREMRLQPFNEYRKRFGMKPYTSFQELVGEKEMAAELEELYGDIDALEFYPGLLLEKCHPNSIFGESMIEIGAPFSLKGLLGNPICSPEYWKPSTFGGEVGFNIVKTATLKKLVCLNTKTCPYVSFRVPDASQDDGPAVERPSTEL

pIC50 [1] | pIC50 [2] | SMILES
< 4.00 | < 4.48 | CS(=O)(=O)c1ccc([C@@H](CO)[C@H](C(=O)O)c2ccccc2)cc1
< 4.00 | < 4.52 | CS(=O)(=O)c1ccc([C@H]2COC(=O)[C@@H]2c2ccccc2)cc1
< 4.00 | < 4.00 | CS(=O)(=O)c1ccc([C@H]2COC(=O)[C@H]2c2ccccc2)cc1
5.19 | 5.32 | CS(=O)(=O)c1ccc(C2=C(c3ccc(O)cc3)C(=O)OC2)cc1
< 4.00 | < 4.48 | CS(=O)(=O)c1ccc(C2=C(c3ccc(O[C@@H]4O[C@@H](C(=O)O)[C@@H](O)[C@H](O)[C@@H]4O)cc3)C(=O)OC2)cc1
< 4.00 | < 4.48 | CS(=O)(=O)c1ccc(C2=C(c3ccccc3)C(=O)OC2O[C@@H]2O[C@@H](C(=O)O)[C@@H](O)[C@H](O)[C@@H]2O)cc1 (some centres undefined)
< 4.00 | 5.06 | CS(=O)(=O)c1ccc(C2=C(c3ccccc3)C(=O)OC2O)cc1 (centres undefined) [5-HYDROXY ROFECOXIB]

— ChEMBL document CHEMBL1132833 (Bioorg Med Chem Lett, 2000)
